For orientation: IC50 means the concentration at which inhibition is half-maximal.

SMILES strings stand for the structures. Bridge positions count the residues as written; N and C are the ends. Square brackets hold non-standard residues; d marks the D form. Peptide text beside a SMILES is read from it. * marks the point of attachment. ξ: configuration not given here. Phe(4-COOH) = N[C@@H](Cc1ccc(C(=O)O)cc1)C(=O)O; Bip = N[C@@H](Cc1ccc(-c2ccccc2)cc1)C(=O)O; Phe(4-CN) = N#Cc1ccc(C[C@H](N)C(=O)O)cc1; Phe(3-Me) = Cc1cccc(C[C@H](N)C(=O)O)c1; Bta = N[C@@H](Cc1csc2ccccc12)C(=O)O; Val(3-OH) = CC(C)(O)[C@H](N)C(=O)O; 4Pal = N[C@@H](Cc1ccncc1)C(=O)O; Cha = N[C@@H](CC1CCCCC1)C(=O)O; Ile(3ξ) = CCC(C)[C@H](N)C(=O)O; AllylGly = C=CC[C@H](N)C(=O)O; Thr(3ξ) = CC(O)[C@H](N)C(=O)O; Carboxymethyl = O=C(O)C*; NMeA = CN[C@@H](C)C(=O)O; Orn = NCCC[C@H](N)C(=O)O; Pra = C#CC[C@H](N)C(=O)O; Dab = NCC[C@H](N)C(=O)O; Dap = NC[C@H](N)C(=O)O; ξC = NC(CS)C(=O)O

This assay deals with T1, PE-labeled human PD-L1-Ig binding to Jurkat cell line over-expressing human PD-1 (Jurkat-PD-1) (Homo sapiens, UniProt Q15116).
T1 construct: expressed in transfected cells; host or cells: Jurkat
T1 sequence (Q15116 25-288): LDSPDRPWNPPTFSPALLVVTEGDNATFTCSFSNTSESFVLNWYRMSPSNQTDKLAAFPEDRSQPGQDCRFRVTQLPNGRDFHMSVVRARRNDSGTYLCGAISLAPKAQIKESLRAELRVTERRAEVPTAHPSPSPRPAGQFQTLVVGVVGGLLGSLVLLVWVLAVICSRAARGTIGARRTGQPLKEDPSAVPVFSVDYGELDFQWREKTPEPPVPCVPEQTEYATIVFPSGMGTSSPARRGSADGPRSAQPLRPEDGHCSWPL
Description: Jurkat-PD-1 Cell Binding High-Content Screening Assay (CBA): Method 1. The conditions noted are these: Jurkat-hPD-1 cells, PE-labeled PD-L1-Ig 20 nM final; read-out: Jurkat HPDL1 PD1 IC50 (uM) (Method 1).
As to `CC(C)C[C@@H]1NC(=O)[C@H](CCN)NC(=O)[C@@H](CC(C)C)NC(=O)[C@H](C)N(C)C(=O)[C@H](CCCNC(=N)N)NC(=O)[C@H](Cc2ccc(-c3ccccc3)cc2)NC(=O)[C@H](C(C)C)NC(=O)[C@H](Cc2c[nH]c3ccccc23)NC(=O)[C@H](CC(N)=O)NC(=O)[C@H](Cc2ccc(O)cc2)NC(=O)[C@H](CC(N)=O)NC(=O)CSC[C@@H](C(=O)N[C@@H](C)C(N)=O)NC(=O)[C@H]([C@@H](C)O)NC(=O)[C@H](C(C)C)NC1=O` [Compound 1186] ({CH2CO}-NYNWV[Bip]R[NMeA][dL][Dab]LVTCA-NH2; thioether N-14), the IC50 was found to be 0.93 µM.

As for `C=CC[C@@H]1NC(=O)[C@H](Cc2cccc(C)c2)NC(=O)[C@H](CC(=O)O)NC(=O)[C@H](Cc2ccncc2)NC(=O)[C@H](Cc2ccc(OCC(=O)O)cc2)NC(=O)CSCC(C(=O)NCC(N)=O)NC(=O)[C@H](CO)NC(=O)[C@H](C(C)C)NC(=O)[C@H](CC(C)C)NC(=O)[C@H](CC(N)=O)NC(=O)[C@@H](CC(C)C)NC(=O)[C@H](C)N(C)C(=O)[C@H](CC=C)NC(=O)[C@H](Cc2ccc(-c3ccccc3)cc2)NC1=O` (stereo partly drawn) [Compound 1883] ({CH2CO}-Y(Carboxymethyl)[4Pal]D[Phe(3-Me)][AllylGly][Bip][AllylGly][NMeA][dL]NLVS[ξC]G-NH2; thioether N-14), the IC50 came out at 0.06 µM.

Turning to `CC(C)C[C@@H]1NC(=O)[C@H](CCN)NC(=O)[C@@H](CC(C)C)NC(=O)[C@H](C)N(C)C(=O)[C@H](CCCNC(=N)N)NC(=O)[C@H](Cc2ccc(-c3ccccc3)cc2)NC(=O)[C@H](C(C)C)NC(=O)[C@H](Cc2c[nH]c3ccccc23)NC(=O)[C@H](CC(=O)O)NC(=O)[C@H](Cc2ccc(C#N)cc2)NC(=O)[C@H](CC(N)=O)NC(=O)CSC[C@@H](C(=O)N[C@@H](C)C(N)=O)NC(=O)[C@H]([C@@H](C)O)NC(=O)[C@H](C(C)C)NC1=O` [Compound 1306] ({CH2CO}-N[Phe(4-CN)]DWV[Bip]R[NMeA][dL][Dab]LVTCA-NH2; thioether N-14), the 50% inhibitory concentration (IC50) is 0.05 µM.

Regarding `Cc1cccc(C[C@@H]2NC(=O)[C@H](CC(=O)O)NC(=O)[C@H](Cc3ccc(OCC(=O)O)cc3)NC(=O)[C@H](C(C)O)NC(=O)CSC[C@@H](C(=O)N[C@@H](CCN)C(N)=O)NC(=O)[C@H](C(C)O)NC(=O)[C@H](C(C)C)NC(=O)[C@H](CC3CCCCC3)NC(=O)[C@H](CCN)NC(=O)[C@@H](CC(C)C)NC(=O)[C@H](C)N(C)C(=O)[C@H](Cc3ccc(OCC(=O)O)cc3)NC(=O)[C@H](Cc3ccc(-c4ccccc4)cc3)NC(=O)[C@H](Cc3ccc(C(=O)O)cc3)NC2=O)c1` (stereo partly drawn) [Compound 2115] ({CH2CO}-[Thr(3ξ)]Y(Carboxymethyl)D[Phe(3-Me)][Phe(4-COOH)][Bip]Y(Carboxymethyl)[NMeA][dL][Dab][Cha]V[Thr(3ξ)]C[Dab]-NH2; thioether N-14), the IC50 was 0.01 µM.

As to `CC(C)C[C@@H]1NC(=O)[C@H](CCCNC(=N)N)NC(=O)[C@H](Cc2csc3ccccc23)NC(=O)[C@H](C)N(C)C(=O)[C@H](CCCNC(=N)N)NC(=O)[C@H](Cc2ccc(-c3ccccc3)cc2)NC(=O)[C@H](C(C)C)NC(=O)[C@H](Cc2c[nH]c3ccccc23)NC(=O)[C@H](CC(=O)O)NC(=O)[C@H](Cc2ccc(O)cc2)NC(=O)[C@H](CCC(N)=O)NC(=O)CSC[C@@H](C(=O)N[C@@H](C)C(N)=O)NC(=O)[C@H](CO)NC(=O)[C@H](C(C)C)NC1=O` [Compound 1057] ({CH2CO}-QYDWV[Bip]R[NMeA][Bta]RLVSCA-NH2; thioether N-14), the IC50 amounted to 0.18 µM.

Take `CC(C)C[C@@H]1NC(=O)[C@H](Cc2c[nH]c3ccccc23)NC(=O)[C@H](CC(=O)O)NC(=O)[C@H](Cc2ccc(OCC(=O)O)cc2)NC(=O)[C@H](CC(N)=O)NC(=O)CSC[C@@H](C(=O)N[C@@H](C)C(N)=O)NC(=O)[C@H](CO)NC(=O)[C@H](C(C)C)NC(=O)[C@H](CC(C)C)NC(=O)[C@H](CC(N)=O)NC(=O)[C@@H](C)NC(=O)[C@H](C)N(C)C(=O)[C@H](C(C)C)NC(=O)[C@H](Cc2ccc(-c3ccccc3)cc2)NC1=O` [Compound 1769] ({CH2CO}-NY(Carboxymethyl)DWL[Bip]V[NMeA][dA]NLVSCA-NH2; thioether N-14): the concentration for half-maximal inhibition (IC50) was 0.04 µM.

Turning to `C#CC[C@H](NC(=O)CNC(=O)[C@@H]1CSCC(=O)N[C@@H]([C@@H](C)O)C(=O)N[C@@H](Cc2ccc(OCC(=O)O)cc2)C(=O)N[C@@H](CC(=O)O)C(=O)N[C@@H](Cc2cccc(C)c2)C(=O)N[C@@H](Cc2ccc(OCC(=O)O)cc2)C(=O)N[C@@H](Cc2ccc(-c3ccccc3)cc2)C(=O)N[C@@H](Cc2ccc(OCC(=O)O)cc2)C(=O)N(C)[C@@H](C)C(=O)N[C@H](CC(C)C)C(=O)N[C@@H](CCN)C(=O)N[C@@H](CC2CCCCC2)C(=O)N[C@@H](C(C)(C)O)C(=O)N[C@@H](CCC(=O)O)C(=O)N1)C(=O)O` [Compound 1938] ({CH2CO}-TY(Carboxymethyl)D[Phe(3-Me)]Y(Carboxymethyl)[Bip]Y(Carboxymethyl)[NMeA][dL][Dab][Cha][Val(3-OH)]ECG[Pra]-OH; thioether N-14), the IC50 was determined as 0.34 µM.

Regarding `CCC(C)[C@@H]1NC(=O)[C@H](Cc2ccc(-c3ccccc3)cc2)NC(=O)[C@H](C(C)C)NC(=O)[C@H](Cc2c[nH]c3ccccc23)NC(=O)[C@H](CC(=O)O)NC(=O)[C@H](Cc2ccc(OCC(=O)O)cc2)NC(=O)[C@H](CN)NC(=O)CSC[C@@H](C(=O)N[C@@H](C)C(N)=O)NC(=O)[C@H](C(C)O)NC(=O)[C@H](C(C)C)NC(=O)[C@H](CC(C)C)NC(=O)[C@H](CCN)NC(=O)[C@@H](CC(C)C)NC(=O)[C@H](C)N(C)C1=O` (stereo partly drawn) [Compound 2084] ({CH2CO}-[Dap]Y(Carboxymethyl)DWV[Bip][Ile(3ξ)][NMeA][dL][Dab]LV[Thr(3ξ)]CA-NH2; thioether N-14), the half-inhibitory concentration (IC50) was 0.07 µM.

Turning to `CC(C)C[C@@H]1NC(=O)[C@H](CCCN)NC(=O)[C@@H](CC(C)C)NC(=O)[C@H](C)N(C)C(=O)[C@H](CCC(=O)O)NC(=O)[C@H](Cc2ccc(-c3ccccc3)cc2)NC(=O)[C@H](C(C)C)NC(=O)[C@H](Cc2c[nH]c3ccccc23)NC(=O)[C@H](CC(=O)O)NC(=O)[C@H](Cc2ccc(O)cc2)NC(=O)[C@H](Cc2ccccc2)NC(=O)CSC[C@@H](C(=O)N[C@@H](CCC(=O)O)C(N)=O)NC(=O)[C@H]([C@@H](C)O)NC(=O)[C@H](C(C)C)NC1=O` [Compound 1163] ({CH2CO}-FYDWV[Bip]E[NMeA][dL][Orn]LVTCE-NH2; thioether N-14), the half-maximal inhibitory concentration (IC50) came to 0.04 µM.

Regarding `CC(C)C[C@@H]1NC(=O)[C@H](CCN)NC(=O)[C@@H](CC(C)C)NC(=O)[C@H](C)N(C)C(=O)[C@H](CCCNC(=N)N)NC(=O)[C@H](Cc2ccc(-c3ccccc3)cc2)NC(=O)[C@H](C(C)C)NC(=O)[C@H](Cc2c[nH]c3ccccc23)NC(=O)[C@H](CC(=O)O)NC(=O)[C@H](Cc2ccc(OCC(=O)O)cc2)NC(=O)[C@H](CC(N)=O)NC(=O)CSC[C@@H](C(=O)N[C@@H](C)C(N)=O)NC(=O)[C@H]([C@@H](C)O)NC(=O)[C@H](C(C)C)NC1=O` [Compound 1138] ({CH2CO}-NY(Carboxymethyl)DWV[Bip]R[NMeA][dL][Dab]LVTCA-NH2; thioether N-14), the IC50 amounted to 0.07 µM.

As for `CC[C@H](C)[C@@H]1NC(=O)[C@H](Cc2ccc(-c3ccccc3)cc2)NC(=O)[C@H](C(C)C)NC(=O)[C@H](Cc2c[nH]c3ccccc23)NC(=O)[C@H](CC(=O)O)NC(=O)[C@H](Cc2ccc(O)cc2)NC(=O)[C@H](Cc2ccncc2)NC(=O)CSC[C@@H](C(=O)N[C@@H](C)C(N)=O)NC(=O)[C@H]([C@@H](C)O)NC(=O)[C@H](C(C)C)NC(=O)[C@H](CC(C)C)NC(=O)[C@H](CCN)NC(=O)[C@@H](CC(C)C)NC(=O)[C@H](C)N(C)C1=O` [Compound 1400] ({CH2CO}-[4Pal]YDWV[Bip]I[NMeA][dL][Dab]LVTCA-NH2; thioether N-14), the IC50 stood at 0.02 µM.

With `CC(C)C[C@@H]1NC(=O)[C@H](Cc2c[nH]c3ccccc23)NC(=O)[C@H](CC(=O)O)NC(=O)[C@H](Cc2ccc(O)cc2)NC(=O)[C@H](Cc2ccccc2)NC(=O)CSC[C@@H](C(=O)N[C@@H](C)C(N)=O)NC(=O)[C@H](CO)NC(=O)[C@H](CCCCN)NC(=O)[C@H](CC(C)C)NC(=O)[C@H](CC(N)=O)NC(=O)[C@@H](C)NC(=O)[C@H](C)N(C)C(=O)[C@H](C(C)C)NC(=O)[C@H](Cc2ccc(-c3ccccc3)cc2)NC1=O` [Compound 1529] ({CH2CO}-FYDWL[Bip]V[NMeA][dA]NLKSCA-NH2; thioether N-14), the half-maximal inhibitory concentration (IC50) was determined as 0.05 µM.

Regarding `CC(C)C[C@@H]1NC(=O)[C@H](Cc2c[nH]c3ccccc23)NC(=O)[C@H](CC(=O)O)NC(=O)[C@H](Cc2ccc(OCC(=O)O)cc2)NC(=O)[C@H](Cc2ccccc2)NC(=O)CSC[C@@H](C(=O)N[C@@H](C)C(N)=O)NC(=O)[C@H](CO)NC(=O)[C@H](C(C)C)NC(=O)[C@H](CC(C)C)NC(=O)[C@H](CC(N)=O)NC(=O)[C@@H](CC(C)C)NC(=O)[C@H](C)N(C)C(=O)[C@H](CCCCN)NC(=O)[C@H](Cc2ccc(-c3ccccc3)cc2)NC1=O` [Compound 2030] ({CH2CO}-FY(Carboxymethyl)DWL[Bip]K[NMeA][dL]NLVSCA-NH2; thioether N-14), the IC50 was 0.03 µM.

As for `CC(C)C[C@@H]1NC(=O)[C@H](CCCN)NC(=O)[C@@H](CC(C)C)NC(=O)[C@H](C)N(C)C(=O)[C@H](CCCNC(=N)N)NC(=O)[C@H](Cc2ccc(-c3ccccc3)cc2)NC(=O)[C@H](C(C)C)NC(=O)[C@H](Cc2c[nH]c3ccccc23)NC(=O)[C@H](CC(=O)O)NC(=O)[C@H](Cc2cnc[nH]2)NC(=O)[C@H](CC(N)=O)NC(=O)CSC[C@@H](C(=O)N[C@@H](C)C(N)=O)NC(=O)[C@H]([C@@H](C)O)NC(=O)[C@H](C(C)C)NC1=O` [Compound 1131] ({CH2CO}-NHDWV[Bip]R[NMeA][dL][Orn]LVTCA-NH2; thioether N-14), the IC50 is 0.28 µM.

Regarding `CC(C)C[C@@H]1NC(=O)[C@H](Cc2c[nH]c3ccccc23)NC(=O)[C@H](CC(=O)O)NC(=O)[C@H](Cc2ccncc2)NC(=O)[C@H](CN)NC(=O)CSC[C@@H](C(=O)N[C@@H](C)C(N)=O)NC(=O)[C@H](CO)NC(=O)[C@H](C(C)C)NC(=O)[C@H](CC(C)C)NC(=O)[C@H](CC(N)=O)NC(=O)[C@@H](C)NC(=O)[C@H](C)N(C)C(=O)[C@H](C(C)C)NC(=O)[C@H](Cc2ccc(-c3ccccc3)cc2)NC1=O` [Compound 1561] ({CH2CO}-[Dap][4Pal]DWL[Bip]V[NMeA][dA]NLVSCA-NH2; thioether N-14), the IC50 turned out to be 0.03 µM.

The values are drawn from US20240409585A1, “MACROCYCLIC IMMUNOMODULATORS” (priority 2021, published 2024).
